The target in one experiment is T1, RORγ-LBD (Homo sapiens, UniProt P51449).
T1 construct: made in house; host or cells: SF9 cells (baculovirus); used as diluted lysate
T1 sequence (P51449 269-508 limits assumed): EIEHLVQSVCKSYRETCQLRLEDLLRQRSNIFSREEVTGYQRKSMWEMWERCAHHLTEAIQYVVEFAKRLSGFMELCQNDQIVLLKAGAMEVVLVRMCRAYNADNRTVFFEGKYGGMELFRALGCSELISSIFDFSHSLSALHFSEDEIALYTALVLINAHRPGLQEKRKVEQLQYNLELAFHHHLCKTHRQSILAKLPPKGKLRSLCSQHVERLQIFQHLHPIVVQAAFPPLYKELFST
Put plainly: RORγ-Ligand Binding Domain (LBD) TR-FRET Assay.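 As to TR-FRET Assay Max Response: 665/615 nm signal ratio set to 100 without ursolic acid or test compound.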 In kind it is biochemical. Particulars: for TR-FRET Assay Max Response: maximum response. In a few lines: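 SF9 lysate containing His-RORγ-LBD, ~3 nM final; coactivator peptide biotin-SRC1 LXXLL, 200 nM final; ursolic acid 2 μM final; DMSO 1% final; Tris pH 7.0 buffer with KCl, EDTA, DTT, BSA. TR-FRET format.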
A general note: In TR-FRET formats the signal depends on donor and acceptor labels being close together.

The next experiment has as its target T2, Gal4-RORγ-LBD (Homo sapiens, UniProt P51449).
T2 construct: expressed in transfected cells
T2 sequence (P51449 269-508 limits assumed): T1 sequence (P51449 269-508 limits assumed)
Briefly: Gal4-RORγ Luciferase Reporter Assay in HEK-293T Cells. The class given is cell-based. Particulars: HEK-293 cells; for Gal4-RORγ Assay Max Response: maximum response. The method in brief: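 HEK-293 cells were co-transfected with Gal4-RORγ-LBD and a Gal4-luciferase reporter, then exposed overnight at 37 °C to compounds with […] ursolic acid present (0.2% DMSO). Luminescence was read with One-Glo after 10 min at RT, untreated signal was set as 100, and Max Response was taken as the upper plateau of a 4-parameter logistic fit.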

Setting [1] is: luciferase reporter, in presence of ursolic acid.

Results on 13 compounds are retold here after patent US9896441B2 (Lycera Corporation, priority 2014, dated 2018).

A word on the EC50: it is the concentration giving half of the maximal effect.

Turning to `C/C(=C\c1ccc2c(c1)N(S(=O)(=O)c1cccc(C(F)(F)F)c1)C[C@H](CCC(=O)N(C)CC(=O)O)O2)c1c(F)cccc1Cl` [Example 129F, (S,E)-N-(3-(6-(2-(2-chloro-6-fluorophenyl)-prop-1-en-1-yl)-4-((3-(trifluoromethyl)phenyl)sulfonyl)-3,4-dihydro-2H-benzo[b][1,4]oxazin-2-yl)propanoyl)-N-methylglycine], on RORγ-LBD (RORγ-LBD TR-FRET assay), the EC50 is under 500 nM and the “TR-FRET Assay Max Response” value is recorded as “*** (a value in the range of greater than 150 to 200)”. At Gal4-RORγ-LBD (setting [1]), the EC50 is under 500 nM and the “Gal4-RORγ Assay Max Response” value is “*** (a value in the range of greater than 150 to 200)”.
In the case of `O=C(O)C1CN(C(=O)CC[C@H]2CN(S(=O)(=O)c3cccc(C(F)(F)F)c3)c3cc(/C=C/c4c(Cl)cccc4C(F)(F)F)ccc3O2)C1` [Example 129G, (S,E)-1-(3-(6-(2-chloro-6-(trifluoromethyl)styryl)-4-((3-(trifluoromethyl)-phenyl)sulfonyl)-3,4-dihydro-2H-benzo[b][1,4]oxazin-2-yl)propanoyl)azetidine-3-carboxylic acid], on RORγ-LBD (RORγ-LBD TR-FRET assay), the EC50 was under 500 nM and the “TR-FRET Assay Max Response” value is listed as “**** (a value greater than 200)”. Further, on Gal4-RORγ-LBD (setting [1]), the EC50 was under 500 nM and the “Gal4-RORγ Assay Max Response” value was “** (a value in the range of greater than 90 to 150)”.
As to `C/C(=C\c1ccc2c(c1)N(S(=O)(=O)c1cccc(C(F)(F)F)c1)C[C@H](CCC(=O)N1CCC[C@@H]1C(=O)O)O2)c1c(F)cccc1Cl` [Example 129H, (3-((S)-6-((E)-2-(2-chloro-6-fluorophenyl)prop-1-en-1-yl)-4-((3-(trifluoromethyl)phenyl)sulfonyl)-3,4-dihydro-2H-benzo[b][1,4]oxazin-2-yl)propanoyl)-D-proline], at RORγ-LBD (RORγ-LBD TR-FRET assay), the 50% effective concentration (EC50) is under 500 nM and the “TR-FRET Assay Max Response” value is “*** (a value in the range of greater than 150 to 200)”. Besides, on Gal4-RORγ-LBD (setting [1]), the concentration for a half-maximal effect (EC50) is under 500 nM and the “Gal4-RORγ Assay Max Response” value was “*** (a value in the range of greater than 150 to 200)”.
For the compound `C/C(=C\c1ccc2c(c1)N(S(=O)(=O)c1cccc(C(F)(F)F)c1)C[C@H](CCC(=O)N1CC(C)(C(=O)O)C1)O2)c1c(F)cccc1Cl` [Example 129I, (S,E)-1-(3-(6-(2-(2-chloro-6-fluorophenyl)-prop-1-en-1-yl)-4-((3-(trifluoromethyl)phenyl)sulfonyl)-3,4-dihydro-2H-benzo[b][1,4]oxazin-2-yl)propanoyl)-3-methylazetidine-3-carboxylic acid], at RORγ-LBD (RORγ-LBD TR-FRET assay), the EC50 is under 500 nM and the “TR-FRET Assay Max Response” value is “*** (a value in the range of greater than 150 to 200)”. Also, on Gal4-RORγ-LBD (setting [1]), the 50% effective concentration (EC50) is under 500 nM and the “Gal4-RORγ Assay Max Response” value is listed as “** (a value in the range of greater than 90 to 150)”.
As for `C/C(=C\c1ccc2c(c1)N(S(=O)(=O)c1cccc(C(F)(F)F)c1)C[C@H](CCC(=O)N1CCC[C@H]1C(=O)O)O2)c1c(F)cccc1Cl` [Example 129J, (3-((S)-6-((E)-2-(2-chloro-6-fluorophenyl)prop-1-en-1-yl)-4-((3-(trifluoromethyl)phenyl)sulfonyl)-3,4-dihydro-2H-benzo[b][1,4]oxazin-2-yl)propanoyl)-L-proline], at RORγ-LBD (RORγ-LBD TR-FRET assay), the EC50 was under 500 nM and the “TR-FRET Assay Max Response” value was “**** (a value greater than 200)”. Moreover, at Gal4-RORγ-LBD (setting [1]), the EC50 was 500 to 5000 nM and the “Gal4-RORγ Assay Max Response” value is “*** (a value in the range of greater than 150 to 200)”.
Turning to `C/C(=C\c1ccc2c(c1)N(S(=O)(=O)c1cc(C(F)(F)F)cnc1OCCO)C[C@H](CCC(=O)N1CCC(C(=O)O)CC1)O2)c1c(F)cccc1Cl` [Example 129K, (S,E)-1-(3-(6-(2-(2-chloro-6-fluorophenyl)-prop-1-en-1-yl)-4-((2-(2-hydroxyethoxy)-5-(trifluoromethyl)pyridin-3-yl)sulfonyl)-3,4-dihydro-2H-benzo[b][1,4]oxazin-2-yl)propanoyl)piperidine-4-carboxylic acid], on RORγ-LBD (RORγ-LBD TR-FRET assay), the EC50 was under 500 nM and the “TR-FRET Assay Max Response” value is on record as “*** (a value in the range of greater than 150 to 200)”. Besides, at Gal4-RORγ-LBD (setting [1]), the EC50 lay within 500 to 5000 nM and the “Gal4-RORγ Assay Max Response” value is given as “** (a value in the range of greater than 90 to 150)”.
For the compound `CCOc1ncc(C(F)(F)F)cc1S(=O)(=O)N1C[C@H](CCC(=O)N2CCC(C(=O)O)CC2)Oc2ccc(/C=C(\C)c3c(F)cccc3Cl)cc21` [Example 129L, (S,E)-1-(3-(6-(2-(2-chloro-6-fluorophenyl)-prop-1-en-1-yl)-4-((2-ethoxy-5-(trifluoro-methyl)pyridin-3-yl)sulfonyl)-3,4-dihydro-2H-benzo[b][1,4]oxazin-2-yl)propanoyl)-piperidine-4-carboxylic acid], on RORγ-LBD (RORγ-LBD TR-FRET assay), the EC50 is under 500 nM and the “TR-FRET Assay Max Response” value is reported as “*** (a value in the range of greater than 150 to 200)”. Moreover, on Gal4-RORγ-LBD (setting [1]), the EC50 is under 500 nM and the “Gal4-RORγ Assay Max Response” value is recorded as “* (a value in the range of 30 to 90)”.
As for `C/C(=C\c1ccc2c(c1)N(S(=O)(=O)c1cc(C(F)(F)F)ccc1OCCO)C[C@H](CCC(=O)N1CCC(C(=O)O)CC1)O2)c1c(F)cccc1Cl` [Example 129M, (S,E)-1-(3-(6-(2-(2-chloro-6-fluorophenyl)-prop-1-en-1-yl)-4-((2-(2-hydroxyethoxy)-5-(trifluoromethyl)phenyl)sulfonyl)-3,4-dihydro-2H-benzo[b][1,4]oxazin-2-yl)propanoyl)piperidine-4-carboxylic acid], at RORγ-LBD (RORγ-LBD TR-FRET assay), the EC50 is under 500 nM and the “TR-FRET Assay Max Response” value is on record as “*** (a value in the range of greater than 150 to 200)”. Besides, on Gal4-RORγ-LBD (setting [1]), the EC50 fell in the range of 500 to 5000 nM and the “Gal4-RORγ Assay Max Response” value was “** (a value in the range of greater than 90 to 150)”.
Consider `C/C(=C\c1ccc2c(c1)N(S(=O)(=O)c1cccc(C(F)(F)F)c1)C[C@H](CCC(=O)N1CCC(C)(C(=O)O)CC1)O2)c1c(F)cccc1Cl` [Example 129N, (S,E)-1-(3-(6-(2-(2-chloro-6-fluorophenyl)-prop-1-en-1-yl)-4-((3-(trifluoromethyl)phenyl)sulfonyl)-3,4-dihydro-2H-benzo[b][1,4]oxazin-2-yl)propanoyl)-4-methylpiperidine-4-carboxylic acid], for which, on RORγ-LBD (RORγ-LBD TR-FRET assay), the EC50 is under 500 nM and the “TR-FRET Assay Max Response” value is given as “*** (a value in the range of greater than 150 to 200)”. For the same compound, on Gal4-RORγ-LBD (setting [1]), the EC50 was under 500 nM and the “Gal4-RORγ Assay Max Response” value is given as “** (a value in the range of greater than 90 to 150)”.
Consider `O=C(O)C1CCN(C(=O)CC[C@H]2CN(S(=O)(=O)c3cccc(C(F)(F)F)c3)c3cc(/C=C/c4c(F)cccc4Cl)ccc3O2)CC1` [Example 129O, (S,E)-1-(3-(6-(2-chloro-6-fluorostyryl)-4-((3-(trifluoromethyl)phenyl)sulfonyl)-3,4-dihydro-2H-benzo[b][1,4]oxazin-2-yl)propanoyl)piperidine-4-carboxylic acid], for which, on RORγ-LBD (RORγ-LBD TR-FRET assay), the EC50 was under 500 nM and the “TR-FRET Assay Max Response” value is on record as “*** (a value in the range of greater than 150 to 200)”. At Gal4-RORγ-LBD (setting [1]), the EC50 is under 500 nM and the “Gal4-RORγ Assay Max Response” value is “** (a value in the range of greater than 90 to 150)”.
Turning to `C/C(=C\c1ccc2c(c1)N(S(=O)(=O)c1cccc(C(F)(F)F)c1)C[C@H](CCC(=O)N(C)CCC(=O)O)O2)c1c(F)cccc1Cl` [Example 129Q, (S,E)-3-(3-(6-(2-(2-chloro-6-fluorophenyl)prop-1-en-1-yl)-4-((3-(trifluoromethyl)-phenyl)sulfonyl)-3,4-dihydro-2H-benzo[b][1,4]-oxazin-2-yl)-N-methyl-propanamido)-propanoic acid], the 50% effective concentration (EC50) at RORγ-LBD (with 2 μM ursolic acid (RORγ antagonist), highest test concentration 10 μM) is under 500 nM; at Gal4-RORγ-LBD (ursolic acid present, luciferase readout) it was under 500 nM.
Consider `O=S(=O)(c1cccc(C(F)(F)F)c1)N1C[C@H](CO)Oc2ccc(Oc3ccccc3)cc21` [Example 130, (R)-(6-Phenoxy-4-((3-(trifluoromethyl)phenyl)sulfonyl)-3,4-dihydro-2H-benzo[b][1,4]oxazin-2-yl)methanol], for which, on RORγ-LBD (RORγ-LBD TR-FRET assay), the EC50 was under 500 nM and the “TR-FRET Assay Max Response” value is reported as “*** (a value in the range of greater than 150 to 200)”. Besides, on Gal4-RORγ-LBD (setting [1]), the EC50 lay in the range of 500 to 5000 nM and the “Gal4-RORγ Assay Max Response” value was “** (a value in the range of greater than 90 to 150)”.
Taken in the same sequence, the figures for `O=S(=O)(c1cccc(C(F)(F)F)c1)N1C[C@H](CO)Oc2ccc(Oc3ccccc3Cl)cc21` [Example 131, (R)-(6-(2-Chlorophenoxy)-4-((3-(trifluoromethyl)phenyl)sulfonyl)-3,4-dihydro-2H-benzo[b][1,4]oxazin-2-yl)methanol] were under 500 nM, “*** (a value in the range of greater than 150 to 200)”, under 500 nM and “** (a value in the range of greater than 90 to 150)”.
